According to ChEMBL document CHEMBL3885861, “Open TG-GATES”:

Species: Rattus norvegicus
Test: Open TG-GATES - Regimen: Single
Format: toxicity, organism-based, Sprague-Dawley
Set-up: regimen Single, gender Male, age 6 weeks
Settings: in vivo, po, 0 mg/kg, route gavage, dose level Control; for APTT / Bas / Eos / Fbg / Hb / Ht / Lym / MCH / MCHC / MCV / Mono / Neu / PT / Plat / RBC / Ret / WBC: tissue Blood; for KIDNEY_L / KIDNEY_R / KIDNEY_TOTAL: tissue Kidney; for LIVER: tissue Liver; for A/G / ALP / ALT / AST / BUN / CRE / Ca / Cl / DBIL / GLC / IP / K / LDH / Na / PL / RALB / TBIL / TC / TG / TP / gamma-GTP: tissue Plasma

For `CCN1CCCC1CNC(=O)c1cc(S(N)(=O)=O)ccc1OC` (configuration not stated) [SULPIRIDE], the TERMINAL_BW (3 h) was 201.8 g, the APTT (3 h) was 17.6 s and the Bas (3 h) was 0%. The Eos (3 h) was 0.6%, the Fbg (3 h) was 247.8 mg/dL and the Hb (3 h) was 13.4 g/dL. For the same compound, the Ht (3 h) was 41.4%, the Lym (3 h) was 80.2% and the MCH (3 h) was 20.9 pg. For the same compound, the MCHC (3 h) was 32.3%, the MCV (3 h) was 64.8 fL and the Mono (3 h) was 2.4%. The Neu (3 h) was 16%, the PT (3 h) was 14.1 s and the Plat (3 h) was 117.7 x10_4/uL. The RBC (3 h) was 639.8 x10_4/ul, the Ret (3 h) was 7.5% and the WBC (3 h) was 81.5 x10_2/uL. For the same compound, the KIDNEY_L (3 h) was 0.9 g, the KIDNEY_R (3 h) was 0.9 g and the KIDNEY_TOTAL (3 h) was 1.9 g. The LIVER (3 h) was 8.6 g, the A/G (3 h) was 0.9 and the ALP (3 h) was 1902.2 IU/L. For the same compound, the ALT (3 h) was 49 IU/L, the AST (3 h) was 92.6 IU/L and the BUN (3 h) was 10.6 mg/dL. It also gave a CRE (3 h) of 0.2 mg/dL, a Ca (3 h) of 11 mg/dL and a Cl (3 h) of 105.8 meq/L. The DBIL (3 h) was 0.01 mg/dL, the GLC (3 h) was 177 mg/dL and the IP (3 h) was 8.9 mg/dL. For the same compound, the K (3 h) was 4.5 meq/L, the LDH (3 h) was 173.6 IU/L and the Na (3 h) was 140.8 meq/L. The PL (3 h) was 116 mg/dL, the RALB (3 h) was 2.4 g/dL and the TBIL (3 h) was 0.074 mg/dL. It also gave a TC (3 h) of 60.8 mg/dL, a TG (3 h) of 50.2 mg/dL and a TP (3 h) of 5.1 g/dL. For the same compound, the gamma-GTP (3 h) was 1.6 IU/L, the TERMINAL_BW (6 h) was 198.5 g and the APTT (6 h) was 17.4 s. The Bas (6 h) was 0.2%, the Eos (6 h) was 0.8% and the Fbg (6 h) was 276.2 mg/dL. The Hb (6 h) was 13.3 g/dL, the Ht (6 h) was 41.6% and the Lym (6 h) was 79.4%. The MCH (6 h) was 20.5 pg, the MCHC (6 h) was 32% and the MCV (6 h) was 64.1 fL. For the same compound, the Mono (6 h) was 2.4%, the Neu (6 h) was 16.4% and the PT (6 h) was 13.5 s. For the same compound, the Plat (6 h) was 123.5 x10_4/uL, the RBC (6 h) was 649.6 x10_4/ul and the Ret (6 h) was 8%. The WBC (6 h) was 87.4 x10_2/uL, the KIDNEY_L (6 h) was 0.9 g and the KIDNEY_R (6 h) was 0.9 g. The KIDNEY_TOTAL (6 h) was 1.8 g, the LIVER (6 h) was 8.6 g and the A/G (6 h) was 0.9. It also gave an ALP (6 h) of 1354.6 IU/L, an ALT (6 h) of 38.2 IU/L and an AST (6 h) of 78 IU/L. For the same compound, the BUN (6 h) was 9 mg/dL, the CRE (6 h) was 0.2 mg/dL and the Ca (6 h) was 10.7 mg/dL. The Cl (6 h) was 105 meq/L, the DBIL (6 h) was 0.01 mg/dL and the GLC (6 h) was 192.2 mg/dL. The IP (6 h) was 9.3 mg/dL, the K (6 h) was 4.3 meq/L and the LDH (6 h) was 105 IU/L. For the same compound, the Na (6 h) was 141.2 meq/L, the PL (6 h) was 128.6 mg/dL and the RALB (6 h) was 2.5 g/dL. For the same compound, the TBIL (6 h) was 0.072 mg/dL, the TC (6 h) was 72.2 mg/dL and the TG (6 h) was 53 mg/dL. The TP (6 h) was 5.2 g/dL, the gamma-GTP (6 h) was 1.8 IU/L and the TERMINAL_BW (9 h) was 200.2 g. The APTT (9 h) was 16.9 s, the Bas (9 h) was 0.2% and the Eos (9 h) was 1%. It also gave a Fbg (9 h) of 302.8 mg/dL, a Hb (9 h) of 13.3 g/dL and a Ht (9 h) of 41.6%. It also gave a Lym (9 h) of 74.2%, an MCH (9 h) of 19.8 pg and an MCHC (9 h) of 32%. It also gave an MCV (9 h) of 62 fL, a Mono (9 h) of 2.6% and a Neu (9 h) of 21.6%. It also gave a PT (9 h) of 13.5 s, a Plat (9 h) of 126.7 x10_4/uL and an RBC (9 h) of 670.8 x10_4/ul. The Ret (9 h) was 7.8%, the WBC (9 h) was 76.7 x10_2/uL and the KIDNEY_L (9 h) was 0.9 g. The KIDNEY_R (9 h) was 0.9 g, the KIDNEY_TOTAL (9 h) was 1.8 g and the LIVER (9 h) was 8.1 g. The A/G (9 h) was 0.9, the ALP (9 h) was 1441.6 IU/L and the ALT (9 h) was 69 IU/L. For the same compound, the AST (9 h) was 70.4 IU/L, the BUN (9 h) was 7.6 mg/dL and the CRE (9 h) was 0.2 mg/dL. For the same compound, the Ca (9 h) was 10.7 mg/dL, the Cl (9 h) was 105.4 meq/L and the DBIL (9 h) was 0.006 mg/dL. It also gave a GLC (9 h) of 170.8 mg/dL, an IP (9 h) of 9.8 mg/dL and a K (9 h) of 3.9 meq/L. The LDH (9 h) was 132.4 IU/L, the Na (9 h) was 141.4 meq/L and the PL (9 h) was 125 mg/dL. For the same compound, the RALB (9 h) was 2.5 g/dL, the TBIL (9 h) was 0.074 mg/dL and the TC (9 h) was 70.8 mg/dL. For the same compound, the TG (9 h) was 61 mg/dL, the TP (9 h) was 5.3 g/dL and the gamma-GTP (9 h) was 1.4 IU/L. The TERMINAL_BW (24 h) was 216.8 g, the APTT (24 h) was 17.3 s and the Bas (24 h) was 0.4%. The Eos (24 h) was 1%, the Fbg (24 h) was 278 mg/dL and the Hb (24 h) was 13.3 g/dL. For the same compound, the Ht (24 h) was 41.1%, the Lym (24 h) was 76.4% and the MCH (24 h) was 20.7 pg. The MCHC (24 h) was 32.4%, the MCV (24 h) was 63.9 fL and the Mono (24 h) was 3.2%. The Neu (24 h) was 18.4%, the PT (24 h) was 13.1 s and the Plat (24 h) was 127.4 x10_4/uL. The RBC (24 h) was 642.4 x10_4/ul, the Ret (24 h) was 7.4% and the WBC (24 h) was 96.8 x10_2/uL. It also gave a KIDNEY_L (24 h) of 0.9 g, a KIDNEY_R (24 h) of 0.9 g and a KIDNEY_TOTAL (24 h) of 1.8 g. For the same compound, the LIVER (24 h) was 9.8 g, the A/G (24 h) was 0.9 and the ALP (24 h) was 1626.2 IU/L. The ALT (24 h) was 39.6 IU/L, the AST (24 h) was 77.2 IU/L and the BUN (24 h) was 14.6 mg/dL. For the same compound, the CRE (24 h) was 0.2 mg/dL, the Ca (24 h) was 10.9 mg/dL and the Cl (24 h) was 106.4 meq/L. The DBIL (24 h) was 0.012 mg/dL, the GLC (24 h) was 186.2 mg/dL and the IP (24 h) was 7.5 mg/dL. For the same compound, the K (24 h) was 4.2 meq/L, the LDH (24 h) was 98.2 IU/L and the Na (24 h) was 141.6 meq/L. It also gave a PL (24 h) of 140 mg/dL, an RALB (24 h) of 2.5 g/dL and a TBIL (24 h) of 0.058 mg/dL. It also gave a TC (24 h) of 74 mg/dL, a TG (24 h) of 96.8 mg/dL and a TP (24 h) of 5.4 g/dL. The gamma-GTP (24 h) was 1 IU/L.
